Bounds are passed on as bounds.

For orientation: IC50 means the point on the concentration scale where inhibition reaches its midpoint.

Sequence of human recombinant H-PGDS (O60760 whole entry): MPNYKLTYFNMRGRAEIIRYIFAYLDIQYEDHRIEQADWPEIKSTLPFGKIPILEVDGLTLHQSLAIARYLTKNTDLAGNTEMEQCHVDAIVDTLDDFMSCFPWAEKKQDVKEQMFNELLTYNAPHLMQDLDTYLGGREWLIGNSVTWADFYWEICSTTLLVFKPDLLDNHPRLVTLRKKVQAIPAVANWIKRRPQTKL

This test concerns the target human recombinant H-PGDS (Homo sapiens, UniProt O60760). Put plainly: Fluorescence Intensity h-PGDS TBA Enzyme Assay. The class given is biochemical. The settings on record: 1:175,000 human recombinant H-PGDS, highest inhibitor concentration typically 1 μM. The gist of the method: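 Readout is PGH2 depletion: after a 42 s reaction with 5.0 μM PGH2 and 2.5 mM glutathione (pH 8.0 Tris, 10 min inhibitor preincubation), Fe(II) converts leftover PGH2 to MDA, which forms a fluorescent TBA complex. IC50s come from 11-point, 3-fold duplicate curves, 4-parameter fit.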
On to `CC(C)OCCCN1CC(CNC(=O)c2ccc(-c3cccc(F)c3)nc2)OCC1=O` (stereo not shown) [Example 216, 6-(3-Fluorophenyl)-N-{[4-(3-isopropoxypropyl)-5-oxomorpholin-2-yl]methyl}nicotinamide], for which the IC50 was 128 nM.

As for `O=C(NCc1ccc(Br)cc1)c1ccc(-c2cccc(F)c2)nc1` [Example 408, N-(4-Bromobenzyl)-6-(3-fluorophenyl)nicotinamide], the IC50 was determined as 103 nM. Under `COC(=O)[C@H](Cc1ccc(Cl)cc1)NC(=O)c1ccc(-c2cccc(OC)c2)nc1` [Example 306, Methyl 4-chloro-N-{[6-(3-methoxyphenyl)pyridin-3-yl]carbonyl}phenylalaninate] stands 387 nM; under `O=C(NC1CCN(Cc2ccc(Cl)cc2)C1=O)c1ccc(-c2cccc(F)c2)nc1` (stereo not shown) [Example 431, N-[1-(4-Chlorobenzyl)-2-oxopyrrolidin-3-yl]-6-(3-fluorophenyl)nicotinamide], 59 nM; under `COc1cc(CCNC(=O)c2ccc(-c3cccc(F)c3)nc2)cc(OC)c1O` [Example 21, 6-(3-Fluorophenyl)-N-[2-(4-hydroxy-3,5-dimethoxyphenyl)ethyl] nicotinamide], 4.94 nM. To `COC(=O)CC(NC(=O)c1ccc(-c2cccc(C)c2)nc1)c1cccnc1` (stereo not shown) [Example 230, Methyl 3-({[6-(3-methylphenyl)pyridin-3-yl]carbonyl}amino)-3-pyridin-3-ylpropanoate] belongs 47.2 nM.

As for `O=C(NC[C@@H]1COc2ccccc2C1)c1ccc(-c2cccc(F)c2)nc1` [Example 572], the IC50 is 0.886 nM. Under `Cc1cnc(CN2CC(CNC(=O)c3ccc(-c4cccc(F)c4)nc3)OCC2=O)cn1` (stereo not shown) [Example 71, 6-(3-Fluorophenyl)-N-({4-[(5-methylpyrazin-2-yl)methyl]-5-oxomorpholin-2-yl}methyl)nicotinamide] stands 61.8 nM. On to `COc1cccc(-c2ccc(C(=O)NCCc3cccs3)cn2)c1` [Example 302, 6-(3-Methoxyphenyl)-N-[2-(2-thienyl)ethyl]nicotinamide], for which the IC50 is 177 nM. To `Cc1ccc(CNC(=O)c2ccc(-c3cccc(C)c3)nc2)cc1` [Example 251, N-(4-Methylbenzyl)-6-(3-methylphenyl)nicotinamide] belongs 105 nM.

`O=C(NCC1CCCCO1)c1ccc(-c2cccc(F)c2)nc1` (stereo not shown) [Example 525, 6-(3-Fluorophenyl)-N-(tetrahydro-2H-pyran-2-ylmethyl)nicotinamide]: the IC50 turned out to be 68.5 nM.

Regarding `O=C(NCC1CCCN(c2nc(C(F)F)cc(=O)[nH]2)C1)c1ccc(-c2cccc(F)c2)nc1` (stereo not shown) [Example 107, N-({1-[4-(Difluoromethyl)-6-oxo-1,6-dihydropyrimidin-2-yl]piperidin-3-yl}methyl)-6-(3-fluorophenyl)nicotinamide], the IC50 was found to be 15.4 nM.

Turning to `CCC(C)NC(=O)c1ccc(-c2cccc(C)c2)nc1` (stereo not shown) [Example 450, N-sec-Butyl-6-(3-methylphenyl)nicotinamide], the IC50 worked out at 42.5 nM.

In the case of `CCOC(=O)C(CNC(=O)c1ccc(-c2cccc(F)c2)nc1)c1c(F)cccc1F` (stereo not shown) [Example 163, Ethyl 2-(2,6-difluorophenyl)-3-({[6-(3-fluorophenyl)pyridin-3-yl]carbonyl}amino)propanoate], the IC50 stood at 146 nM. Under `O=C(CNC(=O)c1ccc(-c2ccc(F)cc2)nc1)OCc1ccccc1` [Example 464, Benzyl N-{[6-(4-fluorophenyl)pyridin-3-yl]carbonyl}glycinate] stands at least 1000 nM; under `O=C(NC1COC2(CCN(c3nc4ccccc4[nH]3)CC2)C1)c1ccc(-c2cccc(F)c2)nc1` (stereo not shown) [Example 150, N-[8-(1H-Benzimidazol-2-yl)-1-oxa-8-azaspiro[4.5]dec-3-yl]-6-(3-fluorophenyl)nicotinamide], 2.88 nM; under `O=C(NC(CCc1ccccc1)c1nn[nH]n1)c1ccc(-c2cccc(F)c2)nc1` (stereo not shown) [Example 62, 6-(3-Fluorophenyl)-N-[3-phenyl-1-(2H-tetrazol-5-yl)propyl]nicotinamide], 17.2 nM. Under `CCOC(=O)CC[C@H](NC(=O)c1ccc(-c2cccc(F)c2)nc1)C(=O)OCC` [Example 27, Diethyl N-{[6-(3-fluorophenyl)pyridin-3-yl]carbonyl}-L-glutamate] stands 4.29 nM; under `N#CC(NC(=O)c1ccc(-c2cccc(F)c2)nc1)c1ccccc1` (stereo not shown) [Example 8, N-[Cyano(phenyl)methyl]-6-(3-fluorophenyl)nicotinamide], 25.7 nM.

As for `COC(=O)CCNC(=O)c1ccc(-c2cccc(F)c2)nc1` [Example 187, Methyl N-{[6-(3-fluorophenyl)pyridin-3-yl]carbonyl}-beta-alaninate], the half-maximal inhibitory concentration (IC50) worked out at 14.5 nM. Under `Cc1cccc(-c2ccc(C(=O)NCCCNc3ccccn3)cn2)c1` [Example 231, 6-(3-Methylphenyl)-N-[3-(pyridin-2-ylamino)propyl]nicotinamide] stands 7.86 nM. Under `COc1cccc(-c2ccc(C(=O)NCCN3CCOC3=O)cn2)c1` [Example 298, 6-(3-Methoxyphenyl)-N-[2-(2-oxo-1,3-oxazolidin-3-yl)ethyl]nicotinamide] stands 528 nM; under `CSc1ccc(CNC(=O)c2ccc(-c3ccccc3)nc2)cc1` [Example 518, N-[4-(Methylthio)benzyl]-6-phenylnicotinamide], 17.5 nM; under `CCOC(=O)CC(NC(=O)c1ccc(-c2ccc(F)cc2)nc1)c1ccccc1` (stereo not shown) [Example 258, Ethyl 3-({[6-(4-fluorophenyl)pyridin-3-yl]carbonyl}amino)-3-phenylpropanoate], 715 nM. To `O=C(NCCN1CCCC1=O)c1ccc(-c2ccc(F)cc2)nc1` [Example 477, 6-(4-Fluorophenyl)-N-[2-(2-oxopyrrolidin-1-yl)ethyl]nicotinamide] belongs 895 nM. `O=C(NCCCc1ccccn1)c1ccc(-c2cccc(F)c2)nc1` [Example 118, 6-(3-Fluorophenyl)-N-(3-pyridin-2-ylpropyl)nicotinamide]: the IC50 amounted to 5.3 nM. To `CN1CCC(CCNC(=O)c2ccc(-c3cccc(F)c3)nc2)CC1` [Example 175, 6-(3-Fluorophenyl)-N-[2-(1-methylpiperidin-4-yl)ethyl]nicotinamide] belongs 47.1 nM; to `CCc1cn2nc(N3C[C@H](NC(=O)c4ccc(-c5cccc(F)c5)nc4)[C@@H](O)C3)ccc2n1` [Example 564, N-[(3S,4S)-1-(2-ethylimidazo[1,2-b]pyridazin-6-yl)-4-hydroxypyrrolidin-3-yl]-6-(3-fluorophenyl)nicotinamide], 61.6 nM; to `O=C(NCCN1CCNC1=O)c1ccc(-c2ccccc2)nc1` [Example 375, N-[2-(2-Oxoimidazolidin-1-yl)ethyl]-6-phenylnicotinamide], 25.5 nM. Under `CN1CCN(CC(CNC(=O)c2ccc(-c3cccc(F)c3)nc2)c2ccccc2)CC1` (stereo not shown) [Example 103, 6-(3-Fluorophenyl)-N-[3-(4-methylpiperazin-1-yl)-2-phenylpropyl]nicotinamide] stands 316 nM; under `O=C(NCCN1CCOCC1)c1cnc(-c2cccc(F)c2)c(Cl)c1` [Example 552, 5-Chloro-6-(3-fluorophenyl)-N-(2-morpholin-4-ylethyl)nicotinamide], 60.8 nM; under `CC(O)CNC(=O)c1ccc(-c2ccccc2)nc1` (stereo not shown) [Example 390, N-(2-Hydroxypropyl)-6-phenylnicotinamide], 13 nM. Under `COc1cccc(-c2ccc(C(=O)Nc3cccnc3)cn2)c1` [Example 485, 6-(3-Methoxyphenyl)-N-pyridin-3-ylnicotinamide] stands 201 nM; under `O=C(NC1CCN(Cc2ccc(Cl)c(Cl)c2)C1=O)c1ccc(-c2ccccc2)nc1` (stereo not shown) [Example 383, N-[1-(3,4-Dichlorobenzyl)-2-oxopyrrolidin-3-yl]-6-phenylnicotinamide], 16.5 nM; under `Cc1ccc2nc(CCNC(=O)c3ccc(-c4cccc(F)c4)nc3)cn2c1` [Example 1, 6-(3-Fluorophenyl)-N-[2-(6-methylimidazo[1,2-a]pyridin-2-yl)ethyl]nicotinamide], 3.54 nM.

Take `COC(=O)c1ccc(CNC(=O)c2ccc(-c3cccc(C)c3)nc2)cc1` [Example 455, Methyl 4-[({[6-(3-methylphenyl)pyridin-3-yl]carbonyl}amino)methyl] benzoate]: the IC50 was determined as 95.1 nM. As to `Cc1cccc(-c2ccc(C(=O)NCC(=O)OCc3ccccc3)cn2)c1` [Example 236, Benzyl N-{[6-(3-methylphenyl)pyridin-3-yl]carbonyl}glycinate], the IC50 amounted to 109 nM. Under `O=C(NCCN1CCCOC1=O)c1ccc(-c2cccc(F)c2)nc1` [Example 41, 6-(3-Fluorophenyl)-N-[2-(2-oxo-1,3-oxazinan-3-yl)ethyl]nicotinamide] stands 18.2 nM; under `COc1cc(F)cc(-c2ccc(C(=O)NCCC3CCCCO3)cn2)c1` (stereo not shown) [Example 560, 6-(3-Fluoro-5-methoxyphenyl)-N-[2-(tetrahydro-2H-pyran-2-yl)ethyl]nicotinamide], 129 nM.

In the case of `COc1cccc(-c2ccc(C(=O)NCCN3CCOCC3)cn2)c1` [Example 332, 6-(3-Methoxyphenyl)-N-(2-morpholin-4-ylethyl)nicotinamide], the IC50 turned out to be 326 nM. Consider `COc1ccccc1-c1nnc(CNC(=O)c2ccc(-c3cccc(F)c3)nc2)o1` [Example 439, 6-(3-Fluorophenyl)-N-{[5-(2-methoxyphenyl)-1,3,4-oxadiazol-2-yl]methyl}nicotinamide], for which the IC50 came out at 20 nM. On to `Cc1cccc2c1OCCC2NC(=O)c1ccc(-c2cc(F)cc(F)c2)nc1` (stereo not shown) [Example 533, 6-(3,5-Difluorophenyl)-N-(8-methyl-3,4-dihydro-2H-chromen-4-yl)nicotinamide], for which the IC50 came out at 8.79 nM.

Regarding `O=C(NCCCCO)c1ccc(-c2cccc(F)c2)nc1` [Example 149, 6-(3-Fluorophenyl)-N-(4-hydroxybutyl)nicotinamide], the IC50 was 20.1 nM.

The values above are taken from patent US20110306597A1, “Nicotinamide Derivatives” (priority 2008, published 2011).
